Laboratory results: US20240301409A1, “Chemically Modified Small Activating RNA” (RACTIGEN THERAPEUTICS, priority 2021, published 2024)

Tested on: T24 cells
Experiment: Cellular proliferation assay (CCK8) in T24 cells, alone and combined with Mitomycin C or valrubicin
Type: cell-based, human
Outline: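 Cells transfected with saRNA RAG1-40-31 (0.1–50 nM) for 24 h, then Mitomycin C or valrubicin (1–10000 nM) added in paired concentrations; single-agent saRNA at 10 nM for 72 h. Viability by CCK8 absorbance at 450 nm after 1 h at 37 °C, as % of blank transfection control.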

RAG1-40-31: saRNA duplex: sense fCfCAACUCAUUCUCCAAG*U*C (SEQ ID NO 16); antisense U*A*fCfUfUGGAGAAfUGAGfUfUGG*fC*A (SEQ ID NO 12) (sense CCAACUCAUUCUCCAAGUC; antisense UACUUGGAGAAUGAGUUGGCA; 2'-F and phosphorothioate modifications; modified_base (1)..(2) (1,2)=2′-fluoro; modified_base (17)..(19) (17,18,19)=phosphorothioate (PS) backbone modification; modified_base (2)..(21) (2,3,19,20,21)=phosphorothioate (PS) backbone modification; modified_base (3)..(20) (3,4,5,12,16,17,20)=2′-fluoro)
Relative proliferation proportion of T24 cells (RAG1-40-31 0.1 nM + MMC 1 nM): 93.6% | Relative proliferation proportion of T24 cells (RAG1-40-31 0.1 nM + MMC 10 nM): 94.5% | Relative proliferation proportion of T24 cells (RAG1-40-31 0.1 nM + MMC 100 nM): 63.3% | Relative proliferation proportion of T24 cells (RAG1-40-31 0.1 nM + MMC 1000 nM): 17.6% | Relative proliferation proportion of T24 cells (RAG1-40-31 0.1 nM + MMC 10000 nM): 5.6% | Relative proliferation proportion of T24 cells (RAG1-40-31 0.1 nM + valrubicin 1 nm): 96.3% | Relative proliferation proportion of T24 cells (RAG1-40-31 0.1 nM + valrubicin 10 nm): 97.8% | Relative proliferation proportion of T24 cells (RAG1-40-31 0.1 nM + valrubicin 100 nm): 93.4% | Relative proliferation proportion of T24 cells (RAG1-40-31 0.1 nM + valrubicin 1000 nm): 59.6% | Relative proliferation proportion of T24 cells (RAG1-40-31 0.1 nM + valrubicin 10000 nm): 18.9% | Relative proliferation proportion of T24 cells (RAG1-40-31 0.1 nM, Control (no MMC)): 97.9% | Relative proliferation proportion of T24 cells (RAG1-40-31 0.1 nM, Control (no valrubicin)): 93.5% | Relative proliferation proportion of T24 cells (RAG1-40-31 0.5 nM + MMC 1 nM): 90.1% | Relative proliferation proportion of T24 cells (RAG1-40-31 0.5 nM + MMC 10 nM): 90.0% | Relative proliferation proportion of T24 cells (RAG1-40-31 0.5 nM + MMC 100 nM): 59.8% | Relative proliferation proportion of T24 cells (RAG1-40-31 0.5 nM + MMC 1000 nM): 16.8% | Relative proliferation proportion of T24 cells (RAG1-40-31 0.5 nM + MMC 10000 nM): 5.5% | Relative proliferation proportion of T24 cells (RAG1-40-31 0.5 nM + valrubicin 1 nm): 91.3% | Relative proliferation proportion of T24 cells (RAG1-40-31 0.5 nM + valrubicin 10 nm): 94.3% | Relative proliferation proportion of T24 cells (RAG1-40-31 0.5 nM + valrubicin 100 nm): 91.4% | Relative proliferation proportion of T24 cells (RAG1-40-31 0.5 nM + valrubicin 1000 nm): 51.8% | Relative proliferation proportion of T24 cells (RAG1-40-31 0.5 nM + valrubicin 10000 nm): 19.5% | Relative proliferation proportion of T24 cells (RAG1-40-31 0.5 nM, Control (no MMC)): 91.7% | Relative proliferation proportion of T24 cells (RAG1-40-31 0.5 nM, Control (no valrubicin)): 84.8% | Relative proliferation proportion of T24 cells (RAG1-40-31 1 nM + MMC 1 nM): 81.9% | Relative proliferation proportion of T24 cells (RAG1-40-31 1 nM + MMC 10 nM): 78.2% | Relative proliferation proportion of T24 cells (RAG1-40-31 1 nM + MMC 100 nM): 55.6% | Relative proliferation proportion of T24 cells (RAG1-40-31 1 nM + MMC 1000 nM): 14.7% | Relative proliferation proportion of T24 cells (RAG1-40-31 1 nM + MMC 10000 nM): 5.4% | Relative proliferation proportion of T24 cells (RAG1-40-31 1 nM + valrubicin 1 nm): 76.0% | Relative proliferation proportion of T24 cells (RAG1-40-31 1 nM + valrubicin 10 nm): 71.3% | Relative proliferation proportion of T24 cells (RAG1-40-31 1 nM + valrubicin 100 nm): 67.6% | Relative proliferation proportion of T24 cells (RAG1-40-31 1 nM + valrubicin 1000 nm): 49.6% | Relative proliferation proportion of T24 cells (RAG1-40-31 1 nM + valrubicin 10000 nm): 16.6% | Relative proliferation proportion of T24 cells (RAG1-40-31 1 nM, Control (no MMC)): 85.9% | Relative proliferation proportion of T24 cells (RAG1-40-31 1 nM, Control (no valrubicin)): 79.7% | Relative proliferation proportion of T24 cells (RAG1-40-31 5 nM + MMC 1 nM): 37.4% | Relative proliferation proportion of T24 cells (RAG1-40-31 5 nM + MMC 10 nM): 36.3% | Relative proliferation proportion of T24 cells (RAG1-40-31 5 nM + MMC 100 nM): 26.0% | Relative proliferation proportion of T24 cells (RAG1-40-31 5 nM + MMC 1000 nM): 7.7% | Relative proliferation proportion of T24 cells (RAG1-40-31 5 nM + MMC 10000 nM): 3.1% | Relative proliferation proportion of T24 cells (RAG1-40-31 5 nM + valrubicin 1 nm): 37.2% | Relative proliferation proportion of T24 cells (RAG1-40-31 5 nM + valrubicin 10 nm): 33.3% | Relative proliferation proportion of T24 cells (RAG1-40-31 5 nM + valrubicin 100 nm): 42.1% | Relative proliferation proportion of T24 cells (RAG1-40-31 5 nM + valrubicin 1000 nm): 25.7% | Relative proliferation proportion of T24 cells (RAG1-40-31 5 nM + valrubicin 10000 nm): 8.0% | Relative proliferation proportion of T24 cells (RAG1-40-31 5 nM, Control (no MMC)): 42.1% | Relative proliferation proportion of T24 cells (RAG1-40-31 5 nM, Control (no valrubicin)): 38.5% | Relative proliferation proportion of T24 cells (RAG1-40-31 10 nM + MMC 1 nM): 19.8% | Relative proliferation proportion of T24 cells (RAG1-40-31 10 nM + MMC 10 nM): 27.0% | Relative proliferation proportion of T24 cells (RAG1-40-31 10 nM + MMC 100 nM): 16.7% | Relative proliferation proportion of T24 cells (RAG1-40-31 10 nM + MMC 1000 nM): 5.3% | Relative proliferation proportion of T24 cells (RAG1-40-31 10 nM + MMC 10000 nM): 2.5% | Relative proliferation proportion of T24 cells (RAG1-40-31 10 nM + valrubicin 1 nm): 27.2% | Relative proliferation proportion of T24 cells (RAG1-40-31 10 nM + valrubicin 10 nm): 23.3% | Relative proliferation proportion of T24 cells (RAG1-40-31 10 nM + valrubicin 100 nm): 26.9% | Relative proliferation proportion of T24 cells (RAG1-40-31 10 nM + valrubicin 1000 nm): 21.7% | Relative proliferation proportion of T24 cells (RAG1-40-31 10 nM + valrubicin 10000 nm): 5.1% | Relative proliferation proportion of T24 cells (RAG1-40-31 10 nM, Control (no MMC)): 22.0% | Relative proliferation proportion of T24 cells (RAG1-40-31 10 nM, Control (no valrubicin)): 23.9% | Relative proliferation proportion of T24 cells (RAG1-40-31 25 nM + MMC 1 nM): 15.4% | Relative proliferation proportion of T24 cells (RAG1-40-31 25 nM + MMC 10 nM): 20.9% | Relative proliferation proportion of T24 cells (RAG1-40-31 25 nM + MMC 100 nM): 12.4% | Relative proliferation proportion of T24 cells (RAG1-40-31 25 nM + MMC 1000 nM): 4.1% | Relative proliferation proportion of T24 cells (RAG1-40-31 25 nM + MMC 10000 nM): 1.9% | Relative proliferation proportion of T24 cells (RAG1-40-31 25 nM + valrubicin 1 nm): 16.5% | Relative proliferation proportion of T24 cells (RAG1-40-31 25 nM + valrubicin 10 nm): 20.4% | Relative proliferation proportion of T24 cells (RAG1-40-31 25 nM + valrubicin 100 nm): 19.5% | Relative proliferation proportion of T24 cells (RAG1-40-31 25 nM + valrubicin 1000 nm): 13.2% | Relative proliferation proportion of T24 cells (RAG1-40-31 25 nM + valrubicin 10000 nm): 3.4% | Relative proliferation proportion of T24 cells (RAG1-40-31 25 nM, Control (no MMC)): 13.6% | Relative proliferation proportion of T24 cells (RAG1-40-31 25 nM, Control (no valrubicin)): 15.1% | Relative proliferation proportion of T24 cells (RAG1-40-31 50 nM + MMC 1 nM): 20.1% | Relative proliferation proportion of T24 cells (RAG1-40-31 50 nM + MMC 10 nM): 19.8% | Relative proliferation proportion of T24 cells (RAG1-40-31 50 nM + MMC 100 nM): 10.8% | Relative proliferation proportion of T24 cells (RAG1-40-31 50 nM + MMC 1000 nM): 4.2% | Relative proliferation proportion of T24 cells (RAG1-40-31 50 nM + MMC 10000 nM): 2.1% | Relative proliferation proportion of T24 cells (RAG1-40-31 50 nM + valrubicin 1 nm): 18.4% | Relative proliferation proportion of T24 cells (RAG1-40-31 50 nM + valrubicin 10 nm): 18.8% | Relative proliferation proportion of T24 cells (RAG1-40-31 50 nM + valrubicin 100 nm): 18.7%
